Like-named read-outs stand apart in the source and are kept apart here.
How the values were obtained:
[1] = molecular target: T1, N-type Ca2+ channels in IMR-32 cells (Homo sapiens, UniProt Q00975); assay: Inhibition of N-type calcium flux in IMR-32 cells (Indo-1 fluorescence, nitrendipine present); assay type: cell-based; details: for inhibition at 1 µM / inhibition at 10 µM: IMR-32; for IC50: IMR-32 cells, 5 μM nitrendipine, K+ depolarization
T1 construct: host or cells: IMR-32 cells, differentiated with dibutyryl cAMP and bromodeoxyuridine
T1 sequence (Q00975 whole entry): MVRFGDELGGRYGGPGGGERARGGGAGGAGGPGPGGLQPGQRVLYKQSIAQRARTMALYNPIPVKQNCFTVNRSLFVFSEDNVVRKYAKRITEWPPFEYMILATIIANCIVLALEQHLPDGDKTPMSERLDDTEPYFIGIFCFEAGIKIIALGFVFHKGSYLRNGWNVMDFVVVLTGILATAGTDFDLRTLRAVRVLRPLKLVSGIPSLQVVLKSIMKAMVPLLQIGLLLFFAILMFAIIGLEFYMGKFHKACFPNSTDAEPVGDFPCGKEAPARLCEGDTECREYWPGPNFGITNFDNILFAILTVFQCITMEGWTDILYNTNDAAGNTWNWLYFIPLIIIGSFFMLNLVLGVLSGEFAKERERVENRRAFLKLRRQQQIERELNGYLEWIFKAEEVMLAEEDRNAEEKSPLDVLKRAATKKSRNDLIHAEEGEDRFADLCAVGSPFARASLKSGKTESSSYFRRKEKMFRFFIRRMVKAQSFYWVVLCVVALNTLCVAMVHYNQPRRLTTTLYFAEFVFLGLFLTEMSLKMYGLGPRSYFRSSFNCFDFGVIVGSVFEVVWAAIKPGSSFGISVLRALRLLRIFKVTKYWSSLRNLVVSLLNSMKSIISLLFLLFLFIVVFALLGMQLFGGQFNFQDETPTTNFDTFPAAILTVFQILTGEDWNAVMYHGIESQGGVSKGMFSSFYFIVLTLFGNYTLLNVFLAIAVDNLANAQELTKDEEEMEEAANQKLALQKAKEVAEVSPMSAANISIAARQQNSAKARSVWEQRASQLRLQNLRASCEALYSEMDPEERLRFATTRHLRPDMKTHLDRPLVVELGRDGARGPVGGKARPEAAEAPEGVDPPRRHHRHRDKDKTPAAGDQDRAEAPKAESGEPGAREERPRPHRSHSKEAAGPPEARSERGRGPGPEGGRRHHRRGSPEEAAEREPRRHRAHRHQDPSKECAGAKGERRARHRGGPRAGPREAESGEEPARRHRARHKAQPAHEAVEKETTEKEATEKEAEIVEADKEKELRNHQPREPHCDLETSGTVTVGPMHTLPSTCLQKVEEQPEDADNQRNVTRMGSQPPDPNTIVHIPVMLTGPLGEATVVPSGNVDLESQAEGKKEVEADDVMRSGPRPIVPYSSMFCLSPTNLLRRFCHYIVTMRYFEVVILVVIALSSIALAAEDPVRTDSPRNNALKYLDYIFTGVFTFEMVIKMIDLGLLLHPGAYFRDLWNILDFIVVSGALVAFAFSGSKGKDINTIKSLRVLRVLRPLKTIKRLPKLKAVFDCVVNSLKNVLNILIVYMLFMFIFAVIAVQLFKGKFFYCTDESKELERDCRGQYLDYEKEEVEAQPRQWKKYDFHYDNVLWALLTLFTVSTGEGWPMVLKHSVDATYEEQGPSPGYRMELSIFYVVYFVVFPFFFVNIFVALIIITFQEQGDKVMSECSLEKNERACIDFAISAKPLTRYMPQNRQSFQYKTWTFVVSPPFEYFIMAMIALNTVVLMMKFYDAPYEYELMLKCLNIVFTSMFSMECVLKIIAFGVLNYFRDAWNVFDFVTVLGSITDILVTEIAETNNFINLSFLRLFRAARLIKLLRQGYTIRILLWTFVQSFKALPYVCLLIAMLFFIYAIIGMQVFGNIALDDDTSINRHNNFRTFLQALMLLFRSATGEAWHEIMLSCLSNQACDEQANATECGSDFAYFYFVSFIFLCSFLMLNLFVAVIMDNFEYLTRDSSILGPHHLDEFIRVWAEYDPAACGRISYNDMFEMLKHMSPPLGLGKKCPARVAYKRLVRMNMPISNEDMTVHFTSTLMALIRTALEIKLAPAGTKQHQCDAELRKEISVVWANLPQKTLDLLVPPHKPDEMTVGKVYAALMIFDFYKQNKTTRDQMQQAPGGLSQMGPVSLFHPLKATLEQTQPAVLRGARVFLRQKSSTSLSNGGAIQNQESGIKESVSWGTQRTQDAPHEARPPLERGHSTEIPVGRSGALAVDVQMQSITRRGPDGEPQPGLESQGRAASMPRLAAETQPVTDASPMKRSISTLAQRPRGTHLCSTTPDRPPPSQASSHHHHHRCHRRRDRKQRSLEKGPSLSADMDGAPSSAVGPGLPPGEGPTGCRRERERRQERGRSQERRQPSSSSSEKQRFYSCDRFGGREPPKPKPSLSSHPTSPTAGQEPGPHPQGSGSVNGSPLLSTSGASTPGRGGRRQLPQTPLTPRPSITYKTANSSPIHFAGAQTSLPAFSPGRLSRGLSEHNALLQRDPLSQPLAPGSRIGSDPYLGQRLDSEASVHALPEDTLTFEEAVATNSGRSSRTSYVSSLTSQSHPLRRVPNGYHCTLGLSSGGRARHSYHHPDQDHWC
T1 sequence (P54289 25-956 partner limits assumed): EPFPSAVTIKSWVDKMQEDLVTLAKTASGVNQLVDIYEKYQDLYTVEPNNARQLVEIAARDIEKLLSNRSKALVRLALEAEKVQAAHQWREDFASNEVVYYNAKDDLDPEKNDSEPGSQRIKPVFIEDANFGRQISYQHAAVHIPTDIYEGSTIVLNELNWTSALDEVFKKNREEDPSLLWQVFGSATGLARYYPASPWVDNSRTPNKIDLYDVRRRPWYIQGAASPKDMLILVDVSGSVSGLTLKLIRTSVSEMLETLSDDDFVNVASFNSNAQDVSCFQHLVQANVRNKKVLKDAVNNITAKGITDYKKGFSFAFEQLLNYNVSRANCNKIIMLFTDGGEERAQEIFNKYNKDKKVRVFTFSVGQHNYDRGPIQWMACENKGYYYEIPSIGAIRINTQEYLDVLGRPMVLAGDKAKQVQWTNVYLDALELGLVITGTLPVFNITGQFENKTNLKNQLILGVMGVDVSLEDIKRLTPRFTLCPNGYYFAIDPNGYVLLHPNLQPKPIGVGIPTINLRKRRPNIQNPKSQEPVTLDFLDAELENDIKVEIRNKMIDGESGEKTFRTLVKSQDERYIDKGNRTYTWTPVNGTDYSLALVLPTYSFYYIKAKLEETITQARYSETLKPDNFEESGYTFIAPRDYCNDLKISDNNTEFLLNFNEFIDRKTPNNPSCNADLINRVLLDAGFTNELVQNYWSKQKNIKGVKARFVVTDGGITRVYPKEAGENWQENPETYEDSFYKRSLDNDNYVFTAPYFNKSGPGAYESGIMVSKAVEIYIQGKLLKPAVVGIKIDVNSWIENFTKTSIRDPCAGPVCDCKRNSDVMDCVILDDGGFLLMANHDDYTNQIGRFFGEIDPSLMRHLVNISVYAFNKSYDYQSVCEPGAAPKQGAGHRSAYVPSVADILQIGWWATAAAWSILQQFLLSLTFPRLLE
T1 sequence (P54289 957-1103 partner limits assumed): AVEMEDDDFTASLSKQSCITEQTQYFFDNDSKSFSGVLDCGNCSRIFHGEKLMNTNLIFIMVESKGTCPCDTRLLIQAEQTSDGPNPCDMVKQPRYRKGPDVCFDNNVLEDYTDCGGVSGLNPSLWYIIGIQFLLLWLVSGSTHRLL
T1 sequence (P54284 whole entry partner): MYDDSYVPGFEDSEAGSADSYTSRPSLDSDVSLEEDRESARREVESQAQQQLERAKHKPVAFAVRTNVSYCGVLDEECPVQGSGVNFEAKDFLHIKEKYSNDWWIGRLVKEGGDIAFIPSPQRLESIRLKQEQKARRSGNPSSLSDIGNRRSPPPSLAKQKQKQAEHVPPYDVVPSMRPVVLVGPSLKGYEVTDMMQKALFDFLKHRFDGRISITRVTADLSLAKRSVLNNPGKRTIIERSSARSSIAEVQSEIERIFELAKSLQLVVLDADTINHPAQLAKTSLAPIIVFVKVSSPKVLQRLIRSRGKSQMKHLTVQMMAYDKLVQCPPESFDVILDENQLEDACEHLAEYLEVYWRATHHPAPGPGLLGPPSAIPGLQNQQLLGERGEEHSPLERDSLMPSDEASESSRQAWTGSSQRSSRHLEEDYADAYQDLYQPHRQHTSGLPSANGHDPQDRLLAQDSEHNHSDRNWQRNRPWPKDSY
How it was run: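 With L-type flux blocked by 5 μM nitrendipine, N-type Ca2+ entry was read as the Indo-1 emission ratio (400/490 nm, excitation 350 nm) at 30° C after KCl depolarization.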

[2] = system: L-type Ca2+ channels in GH3 cells; assay: Inhibition of L-type calcium flux in GH3 cells (Indo-1 fluorescence); assay type: cell-based, rat
Procedure: Measurement of L-type Ca^2+ Channel Blocking Potencies of Compounds in GH3 Cells Using the Fluorescent Ca^2+ Indicator Indo-1
The GH3 rat pituitary cell line was obtained from the American Type Culture Collection (Rockville, Md.). Cells were grown in Ham's F-10 medium with 15% horse serum, 2.5% fetal bovine serum (FBS), and […] (Gibco, Gaithersburg, Md.). Confluent cells were detached using 0.5 mM EDTA and loaded with 5 μM Indo-acetoxymethyl ester (Molecular Probes, Eugene, Oreg.) in 1% bovine serum albumin (BSA) containing assay buffer (10 mM HEPES/Tris pH 7.4 in Hank's Balanced Salt Solution without bicarbonate or phenol red) for 60 minutes at 30° C. Loaded cells were washed twice, resuspended (approx. 10^7 cells/mL) in assay buffer containing 0.5% BSA, and kept on ice until use (<3 hrs). Different concentrations of the test compounds (60 μL in dimethyl sulfoxide) or controls were added to 5.94 mL of assay buffer containing approximately 3×10^6 loaded cells, and the samples were incubated for 10 minutes at 30° C. After incubation, samples were aliquoted into 3 cuvettes, and their fluorescence was measured with a Photon Technology International (PTI, South Brunswick, N.J.) Model RF-F3004 spectrofluorometer thermostatted at 30° C. Excitation was set at 350 nm and dual emissions were recorded at 400 and 490 nm. Basal emission signals were acquired for 20 seconds, followed by the depolarization of cells by the addition of 200 μL of a stimulation solution (1 M KCl, 68 mM CaCl2) to the stirred cuvette. Emission signals were acquired for an additional 50 seconds after depolarization. Ratio of emission signals (F400 nm/F490 nm), which is proportional to intracellular Ca^2+ concentration, was plotted against time, and the difference between the emission ratio 50 seconds after stimulation and its basal value (before stimulation) was determined. Values obtained in this way were considered as measures of depolarization-induced Ca-flux through L-type channels and plotted as a function of drug concentration. IC50 values of test compounds were calculated by fitting a four-parameter logistic function to the data using the least squares method.

[3] = system: Na+ channels in superior cervical ganglion (SCG) neurons; assay: Whole-cell voltage clamp, Na+ current in SCG neurons; assay type: cell-based, rat; details: 10 μM
How it was run: (§1)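 Percent inhibition of control amplitude at steady-state block is the read-out: peak inward Na+ current at 0 mV, sustained K+ current at +50 mV, 35 msec steps every 10 sec from −65 to −55 mV. Recordings used whole-cell clamp of trypsin-dissociated SCG neurons, pH 7.4 external and pipette solutions, compounds applied by local perfusion.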

DBA/2 mice = assay: animal or person; assay type: in vivo; details: for responders at 30 mg/kg: Mus musculus, iv, read-out: Number of Mice Protected from Tonic Convulsions
Procedure: Audiogenic Seizure Model in DBA/2 Mice
In Vivo Biological Protocol
A compound of the present invention was dissolved in water using 10% (weight/volume) Emulphor (GAF Cop., Wayne N.J. surfactant. Substances were administered by intravenous injection the retro-orbital venous sinus. […] All the male mice, 3-4 weeks old were obtained from Jackson Laboratories Bar Harbour, Me. Immediately before anticonvulsant testing, mice were placed upon a wire mesh, 4 inches square suspended from a steel rod. The square was slowly inverted through 180 degree and mice observed for 30 seconds. Any mouse falling from the wire mesh was scored as ataxia.
Mice were placed into an enclosed acrylic plastic chamber (21 cm in height, approximately 30 cm diameter) with a high-frequency speaker (4 cm diameter) in the center of the top lid. An audio signal generator (Protek model B-810) was used to produce a continuous sinusoidal tone that was swept linearly in frequency between 8 kHz and 16 kHz once each 10 msec. The average sound pressure level (SPL) during stimulation was approximately 100 dB at the floor of the chamber. Mice were placed within the chamber and allowed to acclimatize for 1 minute. DBA/2 mice in the vehicle-treated group responded to the sound stimulus (applied until tonic extension occurred, or for a maximum of 60 sec) with a characteristic seizure sequence consisting of wild running followed by clonic seizures, and later by tonic extension, and finally by respiratory arrest and death in 80% or more of the mice. In vehicle-treated mice, the entire sequence of seizures to respiratory arrest lasts approximately 15-20 seconds.
The incidence of all the seizure phases in the drug-treated and vehicle-treated mice was recorded, and the occurrence of tonic seizures were used for calculating anticonvulsant ED50 values by probit analysis. Mice were used only once for testing at each time and dose point.

[4] = system: K+ channels in superior cervical ganglion (SCG) neurons; assay: Whole-cell voltage clamp, K+ current in SCG neurons; assay type: cell-based, rat; details: 10 μM
How it was run: as §1

[5] = molecular target: T2, L-type Ca2+ channels in A10 cells (Rattus norvegicus, UniProt P22002); assay: Inhibition of L-type calcium flux in A10 cells (FLIPR); assay type: cell-based
T2 construct: which endogenously expresses L-type calcium channels; host or cells: A10 rat aortic smooth muscle cells
Procedure: Measurement of L-type Ca^2+ Channel Blocking Potencies of Compounds in A10 cells
Calcium flux through voltage-sensitive calcium channels was assessed by time-resolved monitoring of the fluorescence of pre-loaded calcium-sensitive dyes using FLIPR, a fluorescent image plate reader (Molecular Devices Co.). The A10 smooth muscle cell line derived from embryonic thoracic aorta of the DBIX rat (ATCC, CRL-1476) which endogenously expresses L-type calcium channels. The growth media for A10 cells was Ham's F12/DME high glucose (Irvine Scientific, 9052), supplemented with 20% fetal bovine serum (HyClone Labs, A-1115-L), and 1% each of L-glutamine and antibiotic-antimycotic (same source as above).
Cells were grown to confluency and replated on black-sided 96-well plates (Costar, 3603) for use in FLIPR. Two days after replating, growth media was removed and cells were loaded at 37° C. with 100 μL media containing 1 μM Oregon Green 488 Bapta-1 dye (Molecular Probes, O-6807) for 1 to 3 hours. The dye-containing media was then washed away with buffer (composition in mM: 1.25 CaCl2, 1.2 MgSO4, 11 glucose, 10 HEPES, 3.0 KCl, 137.0 NaCl, pH 7.4 with Tris base) in a Denley Cellwash (Labsystems, CW018B). The residual buffer volume was adjusted to 50 μL. A 5 minute drug-pre-incubation period at 35° C. was initiated when 50 μL of drug-containing buffer was pipetted into the cell plate with the 96-well pipettor integrated in the FLIPR apparatus. Fluorescent counts were monitored at 20 second intervals for 360 seconds, beginning 60 seconds prior to the delivery of drug-containing buffer. Following drug addition, 100 μL aliquots of a high K^+, depolarizing stimulus (composition in mM: 1.25 CaCl2, 1.2 MgSO4, 11 glucose, 10 HEPES, 140.0 KCl, pH 7.4 with Tris base) were added to each well and fluorescence was monitored at 1 second intervals for 120 seconds, beginning 10 seconds prior to the stimulus addition. CCD camera exposure time was 0.4 seconds, laser excitation was at 488 nm with a power of 0.2-0.5W, and a 510 to 560 nm bandpass interference filter preceded the camera.
Data was analyzed as a summation of fluorescent counts above basal during the stimulation period (an approximation of area under the curve), after normalizing the data with a spatial uniformity correction (for variations in laser illumination and cell density) and a negative control correction (zero calcium increase defined as the fluorescence reading in the presence of saturating pharmacologic block of the respective calcium channel). Drug effects were expressed as percent inhibition of fluorescence from an average of 8 K^+-stimulated wells which were pre-treated in the drug incubation period with buffer only.
In the A10 cells, the pharmacologic agent used to define zero calcium influx was nitrendipine (RBI, N-144), at a final concentration of 1.0×10^−6 M.

[6] = 30 mg/Kg iv, 15 min post treatment
[7] = 30 mg/Kg iv, 45 min post treatment

CC(C)(C)OC(=O)[C@@H](Cc1ccc(OCc2ccccc2)cc1)NC(=O)[C@H](Cc1ccccc1)NC(=O)N1CCCCCC1 [Example 18, 2(R)-{2(S)-[(Azepane-1-carbonyl)-amino]-3-phenyl-propionylamino}-3-(4-benzyloxy-phenyl)-propionic acid tert-butyl ester]
inhibition at 1 µM [1]: 50% | inhibition at 10 µM [1]: 97% | IC50 [1]: 930 nM | IC50 [2]: 3500 nM

CC(C)CC(NC(=O)N1CCCCCC1)C(=O)NC(Cc1ccc(OCc2ccccc2)cc1)C(=O)NC(CO)C(C)C (stereo not drawn) [Example 253, Azepane-1-carboxylic acid {1-[2-(4-benzyloxy-phenyl)-1-(1-hydroxymethyl-2-methyl-propylcarbamoyl)-ethylcarbamoyl]-3-methyl-butyl}-amide]
inhibition at 1 µM [1]: 60% | inhibition at 10 µM [1]: 93% | IC50 [1]: 1100 nM | Inhibition of Na+ Current, % Inhibition at 10 μM [3]: 5% | responders at 30 mg/kg (DBA/2 mice; 0.25 h): 0% | Inhibition of K+ Current, % Inhibition at 10 μM [4]: 62%

CC(C)C[C@H](NC(=O)N1CCCCCC1)C(=O)N[C@@H](Cc1ccc(OCc2ccccc2)cc1)C(=O)NC(CO)CO (relative stereo) [Example 257, [S-(R*,R*)]-Azepane-1-carboxylic acid {1-[2-(4-benzyloxy-phenyl)-1-(2-hydroxy-1-hydroxymethyl-ethylcarbamoyl)-ethylcarbamoyl]-3-methyl-butyl}-amide]
Inhibition of Calcium Flux in IMR-32 Cells % Inhibition at 1 μM ([1]; 1 μM): 42% | Inhibition of Calcium Flux in IMR-32 Cells % Inhibition at 10 μM ([1]; 10 μM): 90% | IC50 [1]: 1400 nM | Inhibition of Na+ Current, % Inhibition at 10 μM [3]: 5% | Dead mice (remark beside the protection count) (DBA/2 mice; [6]): (1 dead) | Number of Mice Protected from Tonic Convulsions (DBA/2 mice; [6]): 3/4 | Dead mice (remark beside the protection count) (DBA/2 mice; [7]): 2 (dead) | Number of Mice Protected from Tonic Convulsions (DBA/2 mice; [7]): 3/3 | Inhibition of K+ Current, % Inhibition at 10 μM [4]: 43%

CC(C)C[C@H](NC(=O)N1CCCCCC1)C(=O)N[C@@H](Cc1ccc(OCc2ccccc2)cc1)C(=O)NC1CCN(Cc2ccccc2)C1 (stereo in doubt) [Example 183, Azepane-1-carboxylic acid {(S)-1-[(S)-2-(4-benzyloxy-phenyl)-1-[1-benzyl-(S)-pyrrolidin-3-ylcarbamoyl]-ethylcarbamoyl]-3-methyl-butyl}-amide]
IC50 [1]: 300 nM | responders at 30 mg/kg (DBA/2 mice; 0.25 h): 100% | Dead mice (remark beside the protection count) (DBA/2 mice; mouse, in vivo): dead | IC50 [5]: 220 nM

CC(C)C[C@H](NC(=O)N1CCCCCC1)C(=O)N[C@@H](Cc1ccc(OCc2ccccc2)cc1)C(=O)NCCN1CCCCC1 [Example 171, [S-(R*,R*)]-Azepane-1-carboxylic acid {1-[2-(4-benzyloxy-phenyl)-1-(2-piperidin-1-yl-ethylcarbamoyl)-ethylcarbamoyl]-3-methyl-butyl}-amide]
inhibition at 1 µM [1]: 62% | IC50 [1]: 460 nM | responders at 30 mg/kg (DBA/2 mice; 0.75 h): 0% | IC50 [5]: 270 nM

CC(C)C[C@H](NC(=O)N1CCCCCC1)C(=O)N[C@@H](Cc1ccc(OCc2ccccc2)cc1)C(=O)N1CCSCC1 [Example 221, [S-(R*,R*)]-Azepane-1-carboxylic acid {1-[1-(4-benzyloxy-benzyl)-2-thiomorpholin-4-yl-2-oxo-ethylcarbamoyl]-3-methyl-butyl}-amide]
inhibition at 1 µM [1]: 65% | inhibition at 10 µM [1]: 93% | responders at 30 mg/kg (DBA/2 mice; 0.25 h): 20% | responders at 30 mg/kg (DBA/2 mice; 0.75 h): 0% | IC50 [5]: 600 nM

CC(C)C[C@H](NC(=O)N1CCCCCC1)C(=O)N[C@@H](Cc1ccc(OCc2ccccc2)cc1)C(=O)NCCc1ccccn1 [Example 231]
inhibition at 1 µM [1]: 55% | inhibition at 10 µM [1]: 95% | IC50 [1]: 1110 nM | responders at 30 mg/kg (DBA/2 mice; 0.25 h): 0% | IC50 [5]: 670 nM

CC(C)(C)OC(=O)[C@H](Cc1ccc(OCc2ccccc2)cc1)NC(=O)[C@H](Cc1c[nH]c2ccccc12)NC(=O)N1CCCCCC1 [Example 20, [S-(R*,R*)]-2-[2-[(Azepane-1-carbonyl)-amino]-3-(1H-indol-3-yl)-propionylamino]-3-(4-benzyloxy-phenyl)-propionic acid tert-butyl ester]
inhibition at 1 µM [1]: 52% | inhibition at 10 µM [1]: 90% | IC50 [1]: 910 nM | IC50 [2]: 4600 nM

CC(C)(C)OC(=O)[C@@H](Cc1ccc(OCc2ccccc2)cc1)NC(=O)[C@H](Cc1c[nH]c2ccccc12)NC(=O)N1CCCCCC1 [Example 17, 2(R)-[2(S)-[(Azepane-1-carbonyl)-amino]-3-(1H-indol-3-yl)-propionylamino]-3-(4-benzyloxy-phenyl)-propionic acid tert-butyl ester]
inhibition at 1 µM [1]: 41% | inhibition at 10 µM [1]: 85% | IC50 [1]: 1850 nM | IC50 [2]: 5800 nM

From patent US6423689B1, “Peptidyl calcium channel blockers” (Warner-Lambert Company, priority 1997, dated 2002)
